Structures are written as SMILES.

The subject of the data set is Rattus norvegicus.
Where [1] appears, read: subchronic, duration: 90 days, oral, gavage, M/F, Crj:CD, clinical signs.
Setting [2] is: subchronic, duration: 90 days, oral, diet.

In the case of `Cc1cc(SC(=O)CC(C)C)c(C)o1` [2,5-Dimethyl-3-thioisovalerylfuran], where the note is “subchronic, duration: 90 days”, the NOEL is 0.73 mg/kg-day.

One may read the NOAEL as the highest tested level that showed no adverse finding. Regarding `CC1CC(S)C(C)O1` (centres undefined) [2,5-Dimethyltetrahydrofuran-3-thiol], the NOAEL under setting [1] is 5 mg/kg-day.

As for `CSC(=O)c1ccco1` [2-Furancarbothioic acid, S-methyl ester], the no observed adverse effect level (NOAEL) (subchronic, duration: 90 days, oral) was 6.63 mg/kg-day.

Molecule `CC(=O)SC1=C(C)OCC1` [2-Methyl-3-thioacetoxy-4,5-dihydrofuran] came in with an NOEL (chronic, duration: 1 years, oral, diet) of 8.3 mg/kg-day.

`Cc1occc1SSSSc1ccoc1C` [Bis(2-methyl-3-furyl) tetrasulfide]: the NOEL (subchronic, duration: 90 days) was 0.56 mg/kg-day.

In the case of `Cc1occc1SSc1ccoc1C` [Bis(2-methyl-3-furyl)disulfide], the NOEL under setting [2] stood at 0.45 mg/kg-day.

In turn, `CCOC(=O)CCSCc1ccco1` [Ethyl 3-(furfurylthio)propionate] yielded an NOEL (subchronic, duration: 90 days) of 17 mg/kg-day.

Molecule `Cc1cc(SSc2cc(C)oc2C)c(C)o1` [Furan, 3,3'-dithiobis[2,5-dimethyl-] displayed an NOEL under setting [2] of 0.45 mg/kg-day.

With `CC1OCCC1S` (centres undefined) [Tetrahydro-2-methyl-3-furanthiol], the no-observed-adverse-effect level (NOAEL) under setting [1] came to 5 mg/kg-day.

(Values after EPA's ToxValDB 9.5 (doi:10.2903/j.efsa.2015.4024).)
